Laboratory results taken from patent US20260028326A1, “COMPOUND BASED ON ISOINDOLINE-SUBSTITUTED GLUTARIMIDE BACKBONE AND USE THEREOF” (GLUETACS THERAPEUTICS (SHANGHAI) CO., LTD., priority 2022, published 2026).
Where “and” joins values, the source holds several entries; their conditions need not be identical. Equal values may be shown once.

Tests used:
[1] = target: human Cereblon WT GST-tagged protein (Homo sapiens (Human), UniProt Q96SW2); assay: CRBN-binding affinity, HTRF (CEREBLON BINDING kit)
Chain of human Cereblon WT GST-tagged protein (Q96SW2 whole entry): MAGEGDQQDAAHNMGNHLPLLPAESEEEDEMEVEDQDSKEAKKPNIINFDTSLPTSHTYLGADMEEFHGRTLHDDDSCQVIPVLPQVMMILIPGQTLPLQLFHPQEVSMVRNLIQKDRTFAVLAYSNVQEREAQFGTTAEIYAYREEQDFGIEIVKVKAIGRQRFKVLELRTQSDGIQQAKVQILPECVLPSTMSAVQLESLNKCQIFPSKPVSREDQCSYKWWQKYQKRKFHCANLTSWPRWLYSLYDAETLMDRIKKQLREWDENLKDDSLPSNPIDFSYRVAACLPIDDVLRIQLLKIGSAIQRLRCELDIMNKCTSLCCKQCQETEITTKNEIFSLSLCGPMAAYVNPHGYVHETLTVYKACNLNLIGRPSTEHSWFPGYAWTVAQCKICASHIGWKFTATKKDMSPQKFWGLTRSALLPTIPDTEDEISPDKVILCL
In short: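 GST-tagged human WT Cereblon incubated with compound, then Thalidomide-Re tracer and anti-GST Eu antibody added. Displacement read by HTRF, reported as CRBN binding inhibition rate against blank control wells without protein.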

IKZF1 protein = IKZF1 protein (Homo sapiens (Human), UniProt Q13422+Q96SW2); assay: Western-blot assay of substrate protein degradation in hPBMC, IKZF1; format: cell-based; conditions: hPBMC cells, compound 500 nM, 24 hours, Western blot
Chain of IKZF1 protein (Q13422 whole entry): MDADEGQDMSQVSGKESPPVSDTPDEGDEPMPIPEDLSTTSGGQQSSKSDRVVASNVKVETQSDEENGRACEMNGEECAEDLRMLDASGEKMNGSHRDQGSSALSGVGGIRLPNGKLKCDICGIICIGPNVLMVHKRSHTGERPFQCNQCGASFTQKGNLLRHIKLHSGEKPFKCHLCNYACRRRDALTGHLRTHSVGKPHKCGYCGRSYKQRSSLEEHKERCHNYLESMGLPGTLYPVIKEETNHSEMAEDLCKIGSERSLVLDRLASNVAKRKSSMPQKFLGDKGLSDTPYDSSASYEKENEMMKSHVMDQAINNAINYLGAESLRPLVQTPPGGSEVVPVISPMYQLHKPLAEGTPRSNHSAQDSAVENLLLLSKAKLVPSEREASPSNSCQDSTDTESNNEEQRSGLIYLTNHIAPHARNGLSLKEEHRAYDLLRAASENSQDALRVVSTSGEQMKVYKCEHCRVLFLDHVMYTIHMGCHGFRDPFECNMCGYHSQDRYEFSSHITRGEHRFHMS
Chain of IKZF1 protein (Q96SW2 whole entry): as the sequence (Q96SW2 whole entry) above
Chain of IKZF1 protein (Q16531 whole entry partner): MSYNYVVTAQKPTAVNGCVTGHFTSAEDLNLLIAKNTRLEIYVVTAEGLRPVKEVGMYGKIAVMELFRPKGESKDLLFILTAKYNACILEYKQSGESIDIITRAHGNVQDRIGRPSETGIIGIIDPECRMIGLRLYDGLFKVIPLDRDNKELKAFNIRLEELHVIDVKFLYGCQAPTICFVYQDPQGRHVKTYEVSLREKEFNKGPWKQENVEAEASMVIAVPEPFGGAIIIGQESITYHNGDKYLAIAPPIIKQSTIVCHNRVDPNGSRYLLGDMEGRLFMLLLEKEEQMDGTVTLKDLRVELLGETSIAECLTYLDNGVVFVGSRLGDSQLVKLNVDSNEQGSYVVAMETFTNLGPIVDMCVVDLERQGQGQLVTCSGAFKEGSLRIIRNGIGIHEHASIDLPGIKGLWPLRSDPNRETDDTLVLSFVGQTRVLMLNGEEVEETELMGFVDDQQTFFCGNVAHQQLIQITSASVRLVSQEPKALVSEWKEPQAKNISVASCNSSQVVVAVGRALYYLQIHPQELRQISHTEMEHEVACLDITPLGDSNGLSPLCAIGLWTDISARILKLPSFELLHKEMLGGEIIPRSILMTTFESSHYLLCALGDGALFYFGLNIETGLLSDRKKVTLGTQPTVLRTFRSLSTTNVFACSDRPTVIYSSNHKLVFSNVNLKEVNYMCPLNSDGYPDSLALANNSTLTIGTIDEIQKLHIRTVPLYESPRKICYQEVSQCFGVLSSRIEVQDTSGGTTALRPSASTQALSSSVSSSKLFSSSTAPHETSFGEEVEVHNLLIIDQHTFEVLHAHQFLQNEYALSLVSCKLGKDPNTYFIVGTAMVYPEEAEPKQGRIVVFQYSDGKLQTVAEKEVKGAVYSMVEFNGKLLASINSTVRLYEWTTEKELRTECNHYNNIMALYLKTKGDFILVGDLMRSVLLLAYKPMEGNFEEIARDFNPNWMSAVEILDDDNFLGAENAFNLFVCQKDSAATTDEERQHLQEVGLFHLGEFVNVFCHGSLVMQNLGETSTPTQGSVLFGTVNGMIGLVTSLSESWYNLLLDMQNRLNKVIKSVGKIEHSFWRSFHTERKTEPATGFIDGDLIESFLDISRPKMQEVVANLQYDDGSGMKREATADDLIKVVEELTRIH

IKZF3 protein = IKZF3 protein (Homo sapiens (Human), UniProt Q96SW2+Q9UKT9); assay: Western-blot assay of substrate protein degradation in hPBMC, IKZF3; format: cell-based; conditions: hPBMC cells, compound 500 nM, 24 hours, Western blot
Chain of IKZF3 protein (Q9UKT9 whole entry): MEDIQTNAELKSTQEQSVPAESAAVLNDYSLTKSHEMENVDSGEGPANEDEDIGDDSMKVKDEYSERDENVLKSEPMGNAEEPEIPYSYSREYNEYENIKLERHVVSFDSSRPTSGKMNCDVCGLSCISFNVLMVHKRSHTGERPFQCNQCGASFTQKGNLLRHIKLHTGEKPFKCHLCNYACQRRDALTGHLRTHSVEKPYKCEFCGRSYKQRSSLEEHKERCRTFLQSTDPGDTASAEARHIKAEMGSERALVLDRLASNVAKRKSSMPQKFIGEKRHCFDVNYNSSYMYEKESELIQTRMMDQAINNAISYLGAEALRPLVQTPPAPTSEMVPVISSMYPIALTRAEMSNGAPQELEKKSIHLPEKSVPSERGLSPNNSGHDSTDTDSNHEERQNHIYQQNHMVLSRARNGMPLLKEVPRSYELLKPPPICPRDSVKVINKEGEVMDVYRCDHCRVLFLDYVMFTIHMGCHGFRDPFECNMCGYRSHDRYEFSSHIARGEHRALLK
Chain of IKZF3 protein (Q96SW2 whole entry): as the sequence (Q96SW2 whole entry) above
Chain of IKZF3 protein (Q16531 whole entry partner): as the sequence (Q16531 whole entry partner) above

GSPT1 protein = GSPT1 protein (Homo sapiens (Human), UniProt P15170+Q96SW2); assay: Western-blot assay of substrate protein degradation in hPBMC, GSPT1; format: cell-based; conditions: hPBMC cells, compound 500 nM, 24 hours, Western blot
Chain of GSPT1 protein (P15170 whole entry): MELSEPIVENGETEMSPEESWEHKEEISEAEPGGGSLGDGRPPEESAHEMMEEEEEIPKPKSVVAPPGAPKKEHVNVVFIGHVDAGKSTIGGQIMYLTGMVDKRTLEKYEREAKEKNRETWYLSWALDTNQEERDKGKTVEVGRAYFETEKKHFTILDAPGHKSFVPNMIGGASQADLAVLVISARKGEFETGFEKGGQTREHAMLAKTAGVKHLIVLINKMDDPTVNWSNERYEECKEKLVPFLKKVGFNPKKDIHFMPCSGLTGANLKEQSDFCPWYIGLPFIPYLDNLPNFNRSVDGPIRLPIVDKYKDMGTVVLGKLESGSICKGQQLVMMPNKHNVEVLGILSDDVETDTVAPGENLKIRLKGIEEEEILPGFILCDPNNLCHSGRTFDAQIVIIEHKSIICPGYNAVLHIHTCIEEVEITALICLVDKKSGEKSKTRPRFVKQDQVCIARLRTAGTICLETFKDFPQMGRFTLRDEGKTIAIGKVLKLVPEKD
Chain of GSPT1 protein (Q96SW2 whole entry): as the sequence (Q96SW2 whole entry) above
Chain of GSPT1 protein (Q16531 whole entry partner): as the sequence (Q16531 whole entry partner) above

| Compound | IC50 [1] | residual substrate protein level, IKZF1 (IKZF1 protein) | residual substrate protein level, IKZF3 (IKZF3 protein) | residual substrate protein level, GSPT1 (GSPT1 protein) |
| --- | --- | --- | --- | --- |
| O=C1CCC(N2Cc3cc(CN4C5CC4CN(Cc4ccccc4-c4ccc(Cl)cc4)C5)ccc3C2=O)C(=O)N1 (centres unmarked) [GT-05607, 3-(5-((3-((4′-chloro-[1,1′-biphenyl]-2-yl)methyl)-3,6-diazabicyclo[3.1.1]heptan-6-yl)methyl)-1-oxoisoindolin-2-yl)piperidine-2,6-dione] | 1150 nM and 880 nM | B (B represents a residual substrate protein level of >50%) | B (B represents a residual substrate protein level of >50%) | A (A represents a residual substrate protein level of <50%) |
| O=C1CCC(N2Cc3cc(CN4CC5CN(Cc6ccccc6-c6ccc(Cl)cc6)CC5C4)ccc3C2=O)C(=O)N1 (centres unmarked) [GT-05613, 3-(5-((5-((4′-chloro-[1,1′-biphenyl]-2-yl)methyl)hexahydropyrrolo[3,4-c]pyrrol-2(1H)-yl)methyl)-1-oxoisoindolin-2-yl)piperidine-2,6-dione] | 590 nM | B (B represents a residual substrate protein level of >50%) | A (A represents a residual substrate protein level of <50%) | B (B represents a residual substrate protein level of >50%) |
| O=C1CCC(N2Cc3cc(C(=O)N4CC5CCC(C4)N5Cc4ccccc4-c4ccc(Cl)cc4)ccc3C2=O)C(=O)N1 (centres unmarked) [GT-05621, 3-(5-(8-((4′-chloro-[1,1′-biphenyl]-2-yl)methyl)-3,8-diazabicyclo[3.2.1]octane-3-carbonyl)-1-oxoisoindolin-2-yl)piperidine-2,6-dione] | 1100 nM | B (B represents a residual substrate protein level of >50%) | B (B represents a residual substrate protein level of >50%) | A (A represents a residual substrate protein level of <50%) |
| O=C1CCC(N2Cc3cc(C(=O)N4CC5CCC4CN5Cc4ccccc4-c4ccc(Cl)cc4)ccc3C2=O)C(=O)N1 (centres unmarked) [GT-05622, 3-(5-(5-((4′-chloro-[1,1′-biphenyl]-2-yl)methyl)-2,5-diazabicyclo[2.2.2]octane-2-carbonyl)-1-oxoisoindolin-2-yl)piperidine-2,6-dione] | 910 nM | B (B represents a residual substrate protein level of >50%) | B (B represents a residual substrate protein level of >50%) | A (A represents a residual substrate protein level of <50%) |
| CC1(C)CCC(C(=O)N2CCC3(CC2)CN(C(=O)c2ccc4c(c2)CN(C2CCC(=O)NC2=O)C4=O)C3)=C(c2ccc(Cl)cc2)C1 (centres unmarked) [GT-05657, 3-(5-(7-(4′-chloro-5,5-dimethyl-3,4,5,6-tetrahydro-[1,1′-biphenyl]-2-carbonyl)-2,7-diazaspiro[3.5]nonane-2-carbonyl)-1-oxoisoindolin-2-yl)piperidine-2,6-dione] | 1170 nM | B (B represents a residual substrate protein level of >50%) | B (B represents a residual substrate protein level of >50%) | B (B represents a residual substrate protein level of >50%) |
| CC1(C)CCC(C(=O)N2CC3CN(Cc4ccc5c(c4)CN(C4CCC(=O)NC4=O)C5=O)CC3C2)=C(c2ccc(Cl)cc2)C1 (centres unmarked) [GT-05658, 3-(5-((5-(4′-chloro-5,5-dimethyl-3,4,5,6-tetrahydro-[1,1′-biphenyl]-2-carbonyl)hexahydropyrrolo[3,4-c]pyrrol-2(1H)-yl)methyl)-1-oxoisoindolin-2-yl)piperidine-2,6-dione] | 740 nM | B (B represents a residual substrate protein level of >50%) | A (A represents a residual substrate protein level of <50%) | B (B represents a residual substrate protein level of >50%) |
| O=C1CCC(N2Cc3cc(CN4C5CC4CN(C(=O)c4ccccc4-c4ccc(Cl)cc4)C5)ccc3C2=O)C(=O)N1 (centres unmarked) [GT-05665, 3-(5-((3-(4′-chloro-[1,1′-biphenyl]-2-carbonyl)-3,6-diazabicyclo[3.1.1]heptan-6-yl)methyl)-1-oxoisoindolin-2-yl)piperidine-2,6-dione] | 600 nM | B (B represents a residual substrate protein level of >50%) | B (B represents a residual substrate protein level of >50%) | A (A represents a residual substrate protein level of <50%) |

Further compounds by falling IC50 [1], results first:

| IC50 [1] | Compound | residual substrate protein level, IKZF1 (IKZF1 protein) | residual substrate protein level, IKZF3 (IKZF3 protein) | residual substrate protein level, GSPT1 (GSPT1 protein) |
| --- | --- | --- | --- | --- |
| 720 nM | O=C1CCC(N2Cc3cc(CN4CCN(Cc5ccccc5-c5ccc(F)cc5)CC4)cc(F)c3C2=O)C(=O)N1 (centres unmarked) [GT-05604, 3-(7-fluoro-5-((4-((4′-fluoro-[1,1′-biphenyl]-2-yl)methyl)piperazin-1-yl)methyl)-1-oxoisoindolin-2-yl)piperidine-2,6-dione] | B (B represents a residual substrate protein level of >50%) | B (B represents a residual substrate protein level of >50%) | A (A represents a residual substrate protein level of <50%) |
| 710 nM | CC1(C)CCC(C(=O)N2CC3CCC2CN3Cc2ccc3c(c2)CN(C2CCC(=O)NC2=O)C3=O)=C(c2ccc(Cl)cc2)C1 (centres unmarked) [GT-05662, 3-(5-((5-(4′-chloro-5,5-dimethyl-3,4,5,6-tetrahydro-[1,1′-biphenyl]-2-carbonyl)-2,5-diazabicyclo[2.2.2]octan-2-yl)methyl)-1-oxoisoindolin-2-yl)piperidine-2,6-dione] | B (B represents a residual substrate protein level of >50%) | A (A represents a residual substrate protein level of <50%) | B (B represents a residual substrate protein level of >50%) |
| 650 nM | O=C1CCC(N2Cc3cc(CN4CC5(CCN(Cc6ccccc6-c6ccc(Cl)cc6)CC5)C4)ccc3C2=O)C(=O)N1 (centres unmarked) [GT-05612, 3-(5-((7-((4′-chloro-[1,1′-biphenyl]-2-yl)methyl)-2,7-diazaspiro[3.5]nonan-2-yl)methyl)-1-oxoisoindolin-2-yl)piperidine-2,6-dione] | A (A represents a residual substrate protein level of <50%) | A (A represents a residual substrate protein level of <50%) | B (B represents a residual substrate protein level of >50%) |
| 590 nM | O=C1CCC(N2Cc3cc(CN4CCCN(C(=O)c5ccccc5-c5ccc(Cl)cc5)CC4)ccc3C2=O)C(=O)N1 (centres unmarked) [GT-05644, 3-(5-((4-(4′-chloro-[1,1′-biphenyl]-2-carbonyl)-1,4-diazepan-1-yl)methyl)-1-oxoisoindolin-2-yl)piperidine-2,6-dione] | B (B represents a residual substrate protein level of >50%) | B (B represents a residual substrate protein level of >50%) | A (A represents a residual substrate protein level of <50%) |
